Source: ChEMBL document CHEMBL1139942, “Geldanamycin derivatives and neuroprotective effect on cultured P19-derived neurons” (Bioorg Med Chem Lett, 2007)
Activity calls are given as the source filed them. The calls are words filed in the database; no cut-off is given here.

Experiments:
[1] = Cell viability of mouse P19 derived neurons at 1 nM by XTT reduction assay relative to control; type: functional
[2] = Neuroprotective activity against paclitaxel-induced toxicity in mouse P19 derived neurons assessed as cell viability at 1 nM; type: functional; details: read-out: Activity
[3] = Neurotoxicity against mouse P19 derived neurons after 18 hrs; type: toxicity
[4] = Therapeutic index, ratio of neurotoxic IC50 to neuroprotective activity for mouse P19 derived neurons
Mus musculus [5] = organism: Mus musculus; assay: Neuroprotective activity against vinblastine-induced toxicity in mouse P19 derived neurons assessed as cell viability at 1 nM after 18 hrs by phase contrast microscope; type: functional
Mus musculus [6] = organism: Mus musculus; assay: Neuroprotective activity against paclitaxel-induced toxicity in mouse P19 derived neurons assessed as cell viability at 1 nM after 18 hrs by phase contrast microscope; type: functional
P19 = assay: Cytotoxicity against mouse P19 cells after 18 hrs; type: functional, cell-based; details: P19, 18 h

CCCNC1=C2C[C@@H](C)C[C@H](OC)[C@H](O)[C@@H](C)/C=C(\C)[C@H](OC(N)=O)[C@@H](OC)/C=C\C=C(/C)C(=O)NC(=CC1=O)C2=O showed an Activity [1] of 0%.
Work on COC1=C2C[C@@H](C)C[C@H](OC)[C@H](O)[C@@H](C)/C=C(\C)[C@H](OC(N)=O)[C@@H](OC)/C=C\C=C(/C)C(=O)NC(=C(N)C1=O)C2=O yielded an Activity [1] of 91%.
CNC1=C2C[C@@H](C)C[C@H](OC)[C@H](O)[C@@H](C)/C=C(\C)[C@H](OC(N)=O)[C@@H](OC)/C=C\C=C(/C)C(=O)NC(=C(NC)C1=O)C2=O showed an Activity [1] of 46%.
For COC1=C2C[C@@H](C)C[C@H](OC)[C@H](O)[C@@H](C)/C=C(\C)[C@H](OC(N)=O)[C@@H](OC)/C=C\C=C(/C)C(=O)NC(=C(OC)C1=O)C2=O, the viability at 0.001 µM [2] was 120%, the Activity [1] was 108% and the IC50 at 18 h [3] was greater than 10000 nM. The selectivity ratio [4] was greater than 10000, the Activity (Mus musculus [5]) was “Active” and the Activity (Mus musculus [6]) was “Active”. For the same molecule, the IC50 (P19) was greater than 10000 nM.
CCCNC1=C2C[C@@H](C)C[C@H](OC)[C@H](O)[C@@H](C)/C=C(\C)[C@H](OC(N)=O)[C@@H](OC)/C=C\C=C(/C)C(=O)NC(=C(NCCC)C1=O)C2=O gave an Activity [1] of 0%.
For CO[C@H]1/C=C\C=C(/C)C(=O)NC2=C(NCCCO)C(=O)C(NCCCO)=C(C[C@@H](C)C[C@H](OC)[C@H](O)[C@@H](C)/C=C(\C)[C@@H]1OC(N)=O)C2=O, the Activity [1] was 0%.
For CCOC1=C2C[C@@H](C)C[C@H](OC)[C@H](O)[C@@H](C)/C=C(\C)[C@H](OC(N)=O)[C@@H](OC)/C=C\C=C(/C)C(=O)NC(=C(OCC)C1=O)C2=O, the Activity [1] was 0%.
CO[C@H]1/C=C\C=C(/C)C(=O)NC2=CC(=O)C(N)=C(C[C@@H](C)C[C@H](OC)[C@H](O)[C@@H](C)/C=C(\C)[C@@H]1OC(N)=O)C2=O gave an Activity [1] of 85%.
Molecule CO[C@H]1/C=C\C=C(/C)C(=O)Nc2cc(O)c(O)c(c2O)C[C@@H](C)C[C@H](OC)[C@H](O)[C@@H](C)/C=C(\C)[C@@H]1OC(N)=O has an Activity [1] of 43%.
In the case of COC1=C2C[C@@H](C)C[C@H](OC)[C@H](O)[C@@H](C)/C=C(\C)[C@H](OC(N)=O)[C@@H](OC)/C=C\C=C(/C)C(=O)NC(=CC1=O)C2=O [GELDANAMYCIN], the viability at 0.001 µM [2] is reported as 100%, the Activity [1] is reported as 121% and the IC50 at 18 h [3] is reported as 1800 nM. It also gave a selectivity ratio [4] greater than 1800 and an IC50 (P19) of 100 nM.
CO[C@H]1/C=C\C=C(/C)C(=O)NC2=CC(=O)C(O)=C(C[C@@H](C)C[C@H](OC)[C@H](O)[C@@H](C)/C=C(\C)[C@@H]1OC(N)=O)C2=O showed an Activity [1] of 50%.
Work on C=CCNC1=C2C[C@@H](C)C[C@H](OC)[C@H](O)[C@@H](C)/C=C(\C)[C@H](OC(N)=O)[C@@H](OC)/C=C\C=C(/C)C(=O)NC(=CC1=O)C2=O yielded an Activity [1] of 66%.
In the case of CO[C@H]1/C=C\C=C(/C)C(=O)NC2=CC(=O)C(OCc3ccccc3)=C(C[C@@H](C)C[C@H](OC)[C@H](O)[C@@H](C)/C=C(\C)[C@@H]1OC(N)=O)C2=O, the viability at 0.001 µM [2] is reported as 100%, the Activity [1] is reported as 111% and the IC50 at 18 h [3] is reported as greater than 10000 nM. The IC50 (P19) was 500 nM.
CO[C@H]1/C=C\C=C(/C)C(=O)NC2=CC(=O)C(NCc3ccccc3)=C(C[C@@H](C)C[C@H](OC)[C@H](O)[C@@H](C)/C=C(\C)[C@@H]1OC(N)=O)C2=O showed an Activity [1] of 44%.
Molecule CCCOC1=C2C[C@@H](C)C[C@H](OC)[C@H](O)[C@@H](C)/C=C(\C)[C@H](OC(N)=O)[C@@H](OC)/C=C\C=C(/C)C(=O)NC(=CC1=O)C2=O has a viability at 0.001 µM [2] of 100%, an Activity [1] of 121% and an IC50 at 18 h [3] of 6700 nM. For the same molecule, the IC50 (P19) was 200 nM.
In the case of CCOC1=C2C[C@@H](C)C[C@H](OC)[C@H](O)[C@@H](C)/C=C(\C)[C@H](OC(N)=O)[C@@H](OC)/C=C\C=C(/C)C(=O)NC(=CC1=O)C2=O, the viability at 0.001 µM [2] is reported as 100%, the Activity [1] is reported as 113% and the IC50 at 18 h [3] is reported as 1600 nM. It also gave an IC50 (P19) of 100 nM.
Work on CCNC1=C2C[C@@H](C)C[C@H](OC)[C@H](O)[C@@H](C)/C=C(\C)[C@H](OC(N)=O)[C@@H](OC)/C=C\C=C(/C)C(=O)NC(=CC1=O)C2=O yielded an Activity [1] of 49%.
